# According to ChEMBL document CHEMBL1142710, “3D-QSAR comparative molecular field analysis on opioid receptor antagonists: pooling data from different studies” (J Med Chem, 2005):
# Columns and labels:
# Mu-type opioid receptor = Mu-type opioid receptor (Rattus norvegicus, UniProt P33535); experiment: Binding affinity against Opioid receptor mu 1 from rat brain membranes using [3H]DAMGO
# [1] = biological target: Delta-type opioid receptor (Rattus norvegicus, UniProt P33533); experiment: Binding affinity against Opioid receptor delta 1 from rat brain membranes using [3H]DADLE
# Chain of Delta-type opioid receptor (P33533 whole entry): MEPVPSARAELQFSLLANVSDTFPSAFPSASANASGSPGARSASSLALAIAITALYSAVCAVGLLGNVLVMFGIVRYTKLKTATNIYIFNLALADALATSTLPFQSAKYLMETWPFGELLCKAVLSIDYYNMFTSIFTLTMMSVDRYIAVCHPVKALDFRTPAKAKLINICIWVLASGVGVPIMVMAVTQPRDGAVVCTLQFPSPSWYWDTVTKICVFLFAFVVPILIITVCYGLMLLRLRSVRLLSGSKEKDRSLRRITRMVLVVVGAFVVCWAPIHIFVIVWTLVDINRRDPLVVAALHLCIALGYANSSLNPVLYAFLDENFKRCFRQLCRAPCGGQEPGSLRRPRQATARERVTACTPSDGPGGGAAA
# [2] = biological target: Kappa-type opioid receptor (Cavia porcellus, UniProt P41144); experiment: Binding affinity against Opioid receptor kappa 1 from guinea pig brain membranes using [3H]U-69593
# Chain of Kappa-type opioid receptor (P41144 whole entry): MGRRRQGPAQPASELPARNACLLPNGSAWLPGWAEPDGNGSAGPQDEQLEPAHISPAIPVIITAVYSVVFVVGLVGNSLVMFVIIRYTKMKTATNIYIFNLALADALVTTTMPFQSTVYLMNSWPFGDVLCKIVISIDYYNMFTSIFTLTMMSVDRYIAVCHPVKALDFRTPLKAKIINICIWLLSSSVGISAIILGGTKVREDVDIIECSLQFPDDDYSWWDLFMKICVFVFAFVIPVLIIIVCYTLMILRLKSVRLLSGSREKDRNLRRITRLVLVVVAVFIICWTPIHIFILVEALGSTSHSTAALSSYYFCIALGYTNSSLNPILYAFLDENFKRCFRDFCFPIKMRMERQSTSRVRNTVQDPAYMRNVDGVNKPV
# Chain of Mu-type opioid receptor (P33535 whole entry): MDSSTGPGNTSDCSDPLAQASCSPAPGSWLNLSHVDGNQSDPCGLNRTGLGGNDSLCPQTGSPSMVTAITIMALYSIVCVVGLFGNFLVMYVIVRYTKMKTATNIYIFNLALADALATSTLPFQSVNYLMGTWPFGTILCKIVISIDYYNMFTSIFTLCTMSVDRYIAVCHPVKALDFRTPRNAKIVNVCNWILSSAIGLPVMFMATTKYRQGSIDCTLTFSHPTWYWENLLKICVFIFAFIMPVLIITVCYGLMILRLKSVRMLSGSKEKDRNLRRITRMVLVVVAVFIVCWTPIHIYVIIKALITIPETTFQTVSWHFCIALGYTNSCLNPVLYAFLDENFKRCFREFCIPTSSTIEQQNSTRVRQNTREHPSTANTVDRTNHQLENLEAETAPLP
compound,measurement,setting,value
COc1ccc2c(c1O)[C@]13CCN(CC4CC4)C(C2)[C@@H]1CC1c2ccccc2NC1C3 (stereo partly drawn),Ki,Mu-type opioid receptor,13200 nM
same,Ki,[1],7.08 nM
same,Ki,[2],7940 nM
COc1ccc2c(c1O)[C@]13CCN(C)C(C2)[C@@H]1CC1c2ccccc2NC1C3 (stereo partly drawn),Ki,Mu-type opioid receptor,2820 nM
same,Ki,[1],93.3 nM
Oc1ccc2c3c1O[C@H]1c4ncc(-c5ccccc5)cc4C[C@@]4(O)C(C2)N(CC2CC2)CCC314 (stereo partly drawn),Ki,Mu-type opioid receptor,13.5 nM
same,Ki,[1],0.871 nM
same,Ki,[2],17.8 nM
CCN1CC[C@]23CC4Nc5ccccc5C4C[C@@]2(O)C1Cc1ccc(OC)c(O)c13 (stereo partly drawn),Ki,Mu-type opioid receptor,794 nM
same,Ki,[1],692 nM
Oc1ccc2c3c1O[C@H]1c4nccc(-c5ccccc5)c4C[C@@]4(O)C(C2)N(CC2CC2)CCC314 (stereo partly drawn),Ki,Mu-type opioid receptor,191 nM
same,Ki,[1],72.4 nM
same,Ki,[2],263 nM
C=C(C)CN1CCC23c4c5ccc(OC)c4O[C@H]2C(=O)/C(=C\c2ccccc2)C[C@@]3(O)C1C5 (stereo partly drawn),Ki,[1],3390 nM
Oc1ccc2c3c1O[C@H]1c4ncc(-c5ccc(Cl)cc5)cc4C[C@@]4(O)C(C2)N(CC2CC2)CCC314 (stereo partly drawn),Ki,Mu-type opioid receptor,51.3 nM
same,Ki,[1],2.19 nM
same,Ki,[2],20 nM
Oc1ccc2c3c1O[C@H]1c4ncncc4C[C@@]4(O)C(C2)N(CC2CC2)CCC314 (stereo partly drawn),Ki,Mu-type opioid receptor,4.17 nM
same,Ki,[1],3.47 nM
same,Ki,[2],6.31 nM
Oc1ccc2c3c1O[C@H]1c4ncccc4C[C@@]4(O)C(C2)N(CC2CC2)CCC314 (stereo partly drawn),Ki,Mu-type opioid receptor,1.51 nM
same,Ki,[1],0.776 nM
same,Ki,[2],8.71 nM
C=C(C)CN1CCC23c4c5ccc(O)c4O[C@H]2c2ncc(-c4ccc(Cl)cc4)cc2C[C@@]3(O)C1C5 (stereo partly drawn),Ki,[1],15.8 nM
same,Ki,[2],302 nM
C=C(C)CN1CCC23c4c5ccc(OC)c4O[C@H]2c2ncc(-c4ccc(Cl)cc4)cc2C[C@@]3(O)C1C5 (stereo partly drawn),Ki,[1],257 nM
same,Ki,[2],3240 nM
CCN1CC[C@]23CC4Nc5ccccc5C4C[C@H]2C1Cc1ccc(OC)c(O)c13 (stereo partly drawn),Ki,Mu-type opioid receptor,1350 nM
same,Ki,[1],513 nM
same,Ki,[2],3630 nM
Cc1ncc2c(n1)[C@@H]1Oc3c(O)ccc4c3C13CCN(CC1CC1)C(C4)[C@]3(O)C2 (stereo partly drawn),Ki,Mu-type opioid receptor,6.03 nM
same,Ki,[1],22.9 nM
same,Ki,[2],25.1 nM
COc1ccc2c(c1O)[C@]13CCN(C)C(C2)[C@]1(O)CC1c2ccccc2NC1C3 (stereo partly drawn),Ki,Mu-type opioid receptor,2820 nM
same,Ki,[1],219 nM
Cc1cc(-c2ccccc2)c2c(n1)[C@@H]1Oc3c(O)ccc4c3C13CCN(CC1CC1)C(C4)[C@]3(O)C2 (stereo partly drawn),Ki,Mu-type opioid receptor,155 nM
same,Ki,[1],126 nM
same,Ki,[2],676 nM
Oc1ccc2c3c1O[C@H]1c4nc(-c5ccccc5)ccc4C[C@@]4(O)C(C2)N(CC2CC2)CCC314 (stereo partly drawn),Ki,Mu-type opioid receptor,11 nM
same,Ki,[1],1.78 nM
same,Ki,[2],18.2 nM
COc1ccc2c(c1O)[C@]13CCN(CC4CC4)C(C2)[C@]1(O)CC1c2ccccc2NC1C3 (stereo partly drawn),Ki,Mu-type opioid receptor,1860 nM
same,Ki,[1],21.9 nM
same,Ki,[2],3160 nM
CCCCC1c2c([nH]c3ccccc23)[C@H]2Oc3c(OC)ccc4c3[C@@]23CCN(C)[C@H](C4)[C@H]13 (stereo partly drawn),Ki,[1],372 nM
CC(C)=CCN1CC[C@]23c4c5ccc(O)c4O[C@@H]2c2[nH]c4ccccc4c2C[C@@]3(O)[C@H]1C5,Ki,Mu-type opioid receptor,2820 nM
same,Ki,[1],25.1 nM
same,Ki,[2],3240 nM
CC(C)CCN1CC[C@]23c4c5ccc(O)c4O[C@@H]2c2[nH]c4ccccc4c2C[C@@]3(O)[C@H]1C5,Ki,Mu-type opioid receptor,1290 nM
same,Ki,[1],3.8 nM
same,Ki,[2],676 nM
CCCCCCCN1CC[C@]23c4c5ccc(O)c4O[C@@H]2c2[nH]c4ccccc4c2C[C@@]3(O)[C@H]1C5,Ki,Mu-type opioid receptor,4570 nM
same,Ki,[1],79.4 nM
CCCCN1CC[C@]23c4c5ccc(O)c4O[C@@H]2c2[nH]c4ccccc4c2C[C@@]3(O)[C@H]1C5,Ki,Mu-type opioid receptor,1290 nM
same,Ki,[1],8.32 nM
same,Ki,[2],891 nM
CCCCC1c2c([nH]c3ccccc23)[C@H]2Oc3c(O)ccc4c3[C@@]23CCN(C)[C@H](C4)[C@H]13 (stereo partly drawn),Ki,Mu-type opioid receptor,1100 nM
same,Ki,[1],21.9 nM
same,Ki,[2],724 nM
CC(C)CN1CC[C@]23c4c5ccc(O)c4O[C@@H]2c2[nH]c4ccccc4c2C[C@@]3(O)[C@H]1C5,Ki,Mu-type opioid receptor,2570 nM
same,Ki,[1],3.8 nM
same,Ki,[2],646 nM
CCCCCCN1CC[C@]23c4c5ccc(O)c4O[C@@H]2c2[nH]c4ccccc4c2C[C@@]3(O)[C@H]1C5,Ki,Mu-type opioid receptor,4570 nM
same,Ki,[1],25.7 nM
same,Ki,[2],3090 nM
CCCN1CC[C@]23c4c5ccc(O)c4O[C@@H]2c2[nH]c4ccccc4c2C[C@@]3(O)[C@H]1C5,Ki,Mu-type opioid receptor,708 nM
same,Ki,[1],2 nM
same,Ki,[2],380 nM
CN1CC[C@]23c4c5ccc(O)c4O[C@@H]2c2[nH]c4ccccc4c2C[C@H]3[C@H]1C5,Ki,Mu-type opioid receptor,708 nM
same,Ki,[1],2.4 nM
CC1c2c([nH]c3ccccc23)[C@H]2Oc3c(O)ccc4c3[C@@]23CCN(C)[C@H](C4)[C@H]13 (stereo partly drawn),Ki,Mu-type opioid receptor,240 nM
same,Ki,[1],0.708 nM
same,Ki,[2],126 nM
C=C(C)CN1CC[C@]23c4c5ccc(OC)c4O[C@@H]2c2[nH]c4ccccc4c2C[C@@]3(O)[C@H]1C5,Ki,[1],501 nM
COc1ccc2c3c1O[C@@H]1c4[nH]c5ccccc5c4C[C@H]4[C@@H](C2)N(C)CC[C@]314,Ki,[1],95.5 nM
C/C=C/CN1CC[C@]23c4c5ccc(O)c4O[C@@H]2c2[nH]c4ccccc4c2C[C@@]3(O)[C@H]1C5,Ki,Mu-type opioid receptor,1200 nM
same,Ki,[1],7.41 nM
same,Ki,[2],955 nM
COc1ccc2c3c1O[C@@H]1c4[nH]c5ccccc5c4C(C)[C@H]4[C@@H](C2)N(C)CC[C@]314 (stereo partly drawn),Ki,[1],26.9 nM
C=C(C)CN1CC[C@]23c4c5ccc(O)c4O[C@@H]2c2[nH]c4ccccc4c2C(C)[C@H]3[C@H]1C5 (stereo partly drawn),Ki,Mu-type opioid receptor,1070 nM
same,Ki,[1],8.91 nM
same,Ki,[2],851 nM
C/C=C/CN1CC[C@]23c4c5ccc(O)c4O[C@@H]2c2[nH]c4ccccc4c2C(C)[C@H]3[C@H]1C5 (stereo partly drawn),Ki,Mu-type opioid receptor,1020 nM
same,Ki,[1],2.29 nM
same,Ki,[2],120 nM
CCCCCN1CC[C@]23c4c5ccc(O)c4O[C@@H]2c2[nH]c4ccccc4c2C[C@@]3(O)[C@H]1C5,Ki,Mu-type opioid receptor,2820 nM
same,Ki,[1],15.8 nM
same,Ki,[2],2000 nM
CC(C)N1CC[C@]23c4c5ccc(O)c4O[C@@H]2c2[nH]c4ccccc4c2C[C@@]3(O)[C@H]1C5,Ki,[1],33.1 nM
same,Ki,[2],6170 nM
CCO[C@@]12Cc3c([nH]c4ccccc34)[C@]3(C)Oc4c(O)ccc5c4[C@@]31CCN(C)[C@@H]2C5,Ki,[2],288 nM
O=C(Oc1ccc2c3c([nH]c2c1)[C@H]1Oc2c(O)ccc4c2[C@@]12CCN(CC1CC1)[C@H](C4)[C@]2(O)C3)c1ccccc1,Ki,Mu-type opioid receptor,676 nM
same,Ki,[1],6.76 nM
same,Ki,[2],468 nM
Oc1ccc2c3c1O[C@@H]1c4[nH]c5cccc(Oc6ccccc6)c5c4C[C@@]4(O)[C@@H](C2)N(CC2CC2)CC[C@]314,Ki,Mu-type opioid receptor,1450 nM
same,Ki,[1],67.6 nM
same,Ki,[2],1320 nM
Oc1ccc2c3c1O[C@@H]1c4[nH]c5cccc(-c6ccccc6)c5c4C[C@@]4(O)[C@@H](C2)N(CC2CC2)CC[C@]314,Ki,Mu-type opioid receptor,1510 nM
same,Ki,[1],52.5 nM
same,Ki,[2],2950 nM
Oc1cccc(-c2ccc3c4c2O[C@@H]2c5[nH]c6ccccc6c5C[C@@]5(O)[C@@H](C3)N(CC3CC3)CC[C@]425)c1,Ki,[1],1620 nM
O=C(Oc1cccc2c3c([nH]c12)[C@H]1Oc2c(O)ccc4c2[C@@]12CCN(CC1CC1)[C@H](C4)[C@]2(O)C3)c1ccccc1,Ki,Mu-type opioid receptor,158 nM
same,Ki,[1],3.09 nM
same,Ki,[2],257 nM
O[C@@]12Cc3c([nH]c4ccccc34)[C@H]3Oc4c(-c5ccccc5)ccc5c4[C@@]31CCN(CC1CC1)[C@@H]2C5,Ki,[1],10500 nM
Oc1ccc2c3c1O[C@@H]1c4[nH]c5ccc(-c6ccccc6)cc5c4C[C@@]4(O)[C@@H](C2)N(CC2CC2)CC[C@]314,Ki,Mu-type opioid receptor,166 nM
same,Ki,[1],15.8 nM
same,Ki,[2],355 nM
Cc1ccc2c3c1O[C@@H]1c4[nH]c5ccccc5c4C[C@@]4(O)[C@@H](C2)N(CC2CC2)CC[C@]314,Ki,[1],70.8 nM
Oc1ccc2c3c1O[C@@H]1c4[nH]c5ccc(/C=C/c6ccccn6)cc5c4C[C@@]4(O)[C@@H](C2)N(CC2CC2)CC[C@]314,Ki,Mu-type opioid receptor,75.9 nM
same,Ki,[1],3.72 nM
same,Ki,[2],20 nM
C=Cc1ccc2c3c1O[C@@H]1c4[nH]c5ccccc5c4C[C@@]4(O)[C@@H](C2)N(CC2CC2)CC[C@]314,Ki,[1],61.7 nM
same,Ki,[2],17800 nM
O[C@@]12Cc3c([nH]c4ccccc34)[C@H]3Oc4c(-c5ccco5)ccc5c4[C@@]31CCN(CC1CC1)[C@@H]2C5,Ki,[1],955 nM
Oc1ccc2c3c1O[C@@H]1c4[nH]c5c(-c6ccccc6)cccc5c4C[C@@]4(O)[C@@H](C2)N(CC2CC2)CC[C@]314,Ki,Mu-type opioid receptor,123 nM
same,Ki,[1],2.09 nM
same,Ki,[2],309 nM
O=C(Oc1ccc2[nH]c3c(c2c1)C[C@@]1(O)[C@H]2Cc4ccc(O)c5c4[C@@]1(CCN2CC1CC1)[C@@H]3O5)c1ccccc1,Ki,Mu-type opioid receptor,81.3 nM
same,Ki,[1],4.37 nM
same,Ki,[2],81.3 nM
Oc1ccc2c3c1O[C@@H]1c4[nH]c5cc(-c6ccccc6)ccc5c4C[C@@]4(O)[C@@H](C2)N(CC2CC2)CC[C@]314,Ki,Mu-type opioid receptor,1290 nM
same,Ki,[1],18.2 nM
same,Ki,[2],631 nM
CC1c2c([nH]c3ccccc23)[C@H]2Oc3c(O)ccc4c3[C@@]23CCN(CC2CC2)[C@H](C4)[C@H]13 (stereo partly drawn),Ki,Mu-type opioid receptor,66.1 nM
same,Ki,[1],2.29 nM
same,Ki,[2],36.3 nM
Oc1ccc2c3c1O[C@@H]1c4[nH]c5cc(Oc6ccccc6)ccc5c4C[C@@]4(O)[C@@H](C2)N(CC2CC2)CC[C@]314,Ki,Mu-type opioid receptor,234 nM
same,Ki,[1],6.46 nM
same,Ki,[2],234 nM
O=C(Oc1cccc2[nH]c3c(c12)C[C@@]1(O)[C@H]2Cc4ccc(O)c5c4[C@@]1(CCN2CC1CC1)[C@@H]3O5)c1ccccc1,Ki,Mu-type opioid receptor,363 nM
same,Ki,[1],14.8 nM
same,Ki,[2],537 nM
Oc1ccc2c3c1O[C@@H]1c4[nH]c5c(Oc6ccccc6)cccc5c4C[C@@]4(O)[C@@H](C2)N(CC2CC2)CC[C@]314,Ki,Mu-type opioid receptor,33.9 nM
same,Ki,[1],0.708 nM
same,Ki,[2],33.9 nM
Oc1ccc2c3c1O[C@@H]1c4[nH]c5ccc(Oc6ccccc6)cc5c4C[C@@]4(O)[C@@H](C2)N(CC2CC2)CC[C@]314,Ki,Mu-type opioid receptor,295 nM
same,Ki,[1],17.8 nM
same,Ki,[2],75.9 nM
C=C(C)CN1CCC23c4c5ccc(OC)c4O[C@H]2c2oc4ccccc4c2C[C@@]3(O)C1C5 (stereo partly drawn),Ki,[1],43.7 nM
C=C(C)CN1CCC23c4c5ccc(OC)c4O[C@H]2c2[nH]ncc2C[C@@]3(O)C1C5 (stereo partly drawn),Ki,[1],2400 nM
same,Ki,[2],3090 nM
Oc1ccc2c3c1O[C@H]1c4[nH]c5ccccc5c4C[C@@]4(O)[C@@H](C2)N(CC2CC2)CC[C@]314 [NALTRINDOLE],Ki,[2],26.9 nM
